Measured values published in patent US9567302B2, “Carbamate compounds and of making and using same” (Abide Therapeutics, Inc., priority 2012, dated 2017).

Legend:
FAAH [1] = biological target: T1, FAAH (Mus musculus, UniProt O08914); assay: In vitro competitive activity-based protein profiling (FP-Rh), mouse FAAH; type: biochemical; design: from tissue; host or cells: mouse brain membrane fraction; details: 30 min preincubation at 37° C.
T1 sequence (O08914 1-579): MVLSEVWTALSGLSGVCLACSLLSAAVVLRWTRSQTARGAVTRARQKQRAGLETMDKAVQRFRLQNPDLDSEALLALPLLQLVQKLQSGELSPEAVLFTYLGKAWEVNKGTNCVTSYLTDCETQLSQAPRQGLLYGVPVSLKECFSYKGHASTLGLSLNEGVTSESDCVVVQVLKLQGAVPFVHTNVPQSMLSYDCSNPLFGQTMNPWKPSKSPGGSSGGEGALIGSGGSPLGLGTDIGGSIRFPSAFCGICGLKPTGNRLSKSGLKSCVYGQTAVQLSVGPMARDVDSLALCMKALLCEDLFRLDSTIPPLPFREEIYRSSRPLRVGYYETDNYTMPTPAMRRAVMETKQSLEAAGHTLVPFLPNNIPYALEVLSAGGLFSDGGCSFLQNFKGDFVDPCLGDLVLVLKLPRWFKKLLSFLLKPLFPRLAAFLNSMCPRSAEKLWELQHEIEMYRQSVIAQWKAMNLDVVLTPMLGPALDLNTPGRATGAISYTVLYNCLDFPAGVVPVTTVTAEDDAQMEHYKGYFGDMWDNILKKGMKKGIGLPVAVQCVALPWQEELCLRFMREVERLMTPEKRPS
Experimental: (§1) In Vitro Competitive Activity-Based Protein Profiling.
(§2) Proteomes (mouse brain membrane fraction or cell lysates) (50 μL, 1.0 mg/ml total protein concentration) were preincubated with varying concentrations of inhibitors at 37° C. After 30 min, FP-Rh (1.0 μL, 50 μM in DMSO) was added and the mixture was incubated for another 30 min at 37° C. Reactions were quenched with SDS loading buffer (50 μL—4×) and run on SDS-PAGE.

MAGL [2] = biological target: T2, MAGL (Mus musculus, UniProt O35678); assay: In vitro competitive activity-based protein profiling (FP-Rh), mouse MAGL; type: biochemical; design: from tissue; host or cells: mouse brain membrane fraction; details: 30 min preincubation at 37° C.
T2 sequence (O35678 1-303): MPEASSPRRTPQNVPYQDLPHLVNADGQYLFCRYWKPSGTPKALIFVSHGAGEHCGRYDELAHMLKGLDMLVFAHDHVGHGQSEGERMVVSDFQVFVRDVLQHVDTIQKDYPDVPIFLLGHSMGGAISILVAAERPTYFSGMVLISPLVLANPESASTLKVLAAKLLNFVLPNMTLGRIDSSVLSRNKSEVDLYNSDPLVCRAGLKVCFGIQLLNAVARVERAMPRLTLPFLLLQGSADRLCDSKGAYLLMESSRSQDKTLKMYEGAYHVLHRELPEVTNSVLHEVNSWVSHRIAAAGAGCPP
Experimental: as §1, §2

MAGL [3] = biological target: T2, MAGL; assay: Mouse brain MAGL inhibition in proteomes from inhibitor treated mice (oral gavage); type: in vivo; design: from tissue; host or cells: mouse brain membrane fraction; details: p.o., C57Bl/6J mice, brain proteome 4 h following administration
Experimental: as §2
Preparation of Mouse Brain Proteomes from Inhibitor Treated Mice.
Inhibitors were administered to wild-type C57B1/6J by oral gavage in a vehicle of polyethylene glycol.

ABHD6 [4] = biological target: T3, ABHD6 (Mus musculus, UniProt Q8R2Y0); assay: In vitro competitive activity-based protein profiling (FP-Rh), mouse ABHD6; type: biochemical; design: from tissue; host or cells: mouse brain membrane fraction; details: 30 min preincubation at 37° C.
T3 sequence (Q8R2Y0 1-336): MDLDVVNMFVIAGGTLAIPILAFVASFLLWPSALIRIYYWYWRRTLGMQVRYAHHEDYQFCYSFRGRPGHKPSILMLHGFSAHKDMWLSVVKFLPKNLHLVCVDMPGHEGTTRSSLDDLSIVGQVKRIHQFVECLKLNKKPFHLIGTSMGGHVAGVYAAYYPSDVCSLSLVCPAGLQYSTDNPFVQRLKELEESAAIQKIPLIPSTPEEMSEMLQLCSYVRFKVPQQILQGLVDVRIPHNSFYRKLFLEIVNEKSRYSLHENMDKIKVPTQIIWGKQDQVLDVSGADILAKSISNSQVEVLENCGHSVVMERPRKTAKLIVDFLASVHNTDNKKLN
Experimental: as §1, §2

hMAGL = biological target: T4, hMAGL (Homo sapiens, UniProt Q99685); assay: Competitive ABPP with human MAGL recombinantly expressed in HEK293T cells; type: biochemical; details: Table 1; hMAGL-HEK293T cell lysates
T4 construct: expressed in transfected cells; host or cells: HEK293T
T4 sequence (Q99685 1-303): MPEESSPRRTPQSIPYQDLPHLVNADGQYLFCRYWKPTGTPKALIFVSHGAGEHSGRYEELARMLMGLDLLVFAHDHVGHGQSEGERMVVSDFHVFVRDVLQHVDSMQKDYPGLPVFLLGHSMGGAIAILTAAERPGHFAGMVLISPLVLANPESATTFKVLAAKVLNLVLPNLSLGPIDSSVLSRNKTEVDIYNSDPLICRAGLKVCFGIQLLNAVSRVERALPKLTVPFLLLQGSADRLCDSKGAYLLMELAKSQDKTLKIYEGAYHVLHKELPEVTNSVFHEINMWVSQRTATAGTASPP
Experimental: as §2
Recombinant Expression of Human MAGL in HEK293T Cells.
Cell lysates were diluted with mock proteomes for use in competitive ABPP experiments.

ABHD6 [5] = biological target: T3, ABHD6; assay: In vitro competitive ABPP, % inhibition at fixed concentration, ABHD6; type: biochemical; design: from tissue
How it was run: (§3)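 Mouse brain membrane proteome or cell lysate at 1.0 mg/ml was preincubated with inhibitor for 30 min at 37° C, then labelled with FP-Rh for another 30 min. After SDS-PAGE, activity was quantified from the fluorescent intensity of the MAGL, ABHD6 and FAAH bands.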

MAGL [6] = biological target: T2, MAGL; assay: In vitro competitive ABPP, % inhibition at fixed concentration, MAGL; type: biochemical; design: from tissue
How it was run: as §3

FAAH [7] = biological target: T1, FAAH; assay: In vitro competitive ABPP, % inhibition at fixed concentration, FAAH; type: biochemical; design: from tissue
How it was run: as §3

SMILES	IC50 (hMAGL) [nM]	IC50 (FAAH [1]; Table 1, mouse proteome) [nM]	IC50 (MAGL [2]; Table 1, mouse proteome) [nM]	IC50 (ABHD6 [4]; Table 1, mouse proteome) [nM]	also measured
O=C(ON1C(=O)CCC1=O)N1CCN(Cc2ccc(C(F)(F)F)cc2N2CCCC2)CC1 [Example 105, 2,5-Dioxopyrrolidin-1-yl 4-{[2-(pyrrolidin-1-yl)-4-(trifluoromethyl)phenyl]methyl}piperazine-1-carboxylate]					IC50 (FAAH [1]; Table 2, mouse proteome): > 10000 nM; IC50 (MAGL [2]; Table 2, mouse proteome): < 100 nM; inhibition at 5 mg/kg (MAGL [3]): 75%; IC50 (ABHD6 [4]; Table 2, mouse proteome): 1000 to 10000 nM
COc1ccc(N2CCN(C(=O)ON3C(=O)CCC3=O)CC2)cc1 [Example 5, 2,5-Dioxopyrrolidin-1-yl 4-(4-methoxyphenyl)piperazine-1-carboxylate]	1000 to 10000	> 10000	1000 to 10000	1000 to 10000	
O=C(ON1C(=O)CCC1=O)N1CCC(CCc2ccc(Cl)cc2)CC1 [Example 8, 2,5-Dioxopyrrolidin-1-yl 4-[2-(4-chlorophenyl)ethyl]piperidine-1-carboxylate]	< 100	100 to 1000	< 100	< 100	
CC1CC(=O)N(OC(=O)N2CCN(C(c3ccc(Cl)cc3)c3ccc(Cl)cc3)CC2)C1=O (centres unmarked) [Example 41, 3-Methyl-2,5-dioxopyrrolidin-1-yl 4-(bis(4-chlorophenyl)methyl)piperazine-1-carboxylate]		> 10000	< 100	100 to 1000	inhibition at 20 mg/kg (MAGL [3]): > 95%
O=C(ON1C(=O)CNC1=O)N1CCN(C(c2ccc(Cl)cc2)c2ccc(Cl)cc2)CC1 [Example 46, 2,5-Dioxoimidazolidin-1-yl 4-(bis(4-chlorophenyl)methyl)piperazine-1-carboxylate]		> 10000	< 100	100 to 1000	inhibition at 20 mg/kg (MAGL [3]): > 95%
O=C(ON1C(=O)CCC1=O)N1CCN(Cc2ccc(Br)cc2Oc2ccccc2)CC1 [Example 37, 2,5-Dioxopyrrolidin-1-yl 4-[(4-bromo-2-phenoxyphenyl)methyl]piperazine-1-carboxylate]	< 100	1000 to 10000	< 100	100 to 1000	
O=C(ON1C(=O)CCC1=O)N1CCN(Cc2ccccc2Oc2ccccc2)CC1 [Example 35, 2,5-Dioxopyrrolidin-1-yl 4-[(2-phenoxyphenyl)methyl]piperazine-1-carboxylate]	< 100	1000 to 10000	< 100	< 100	
O=C(CN1CCN(C(=O)ON2C(=O)CCC2=O)CC1)Nc1cc(C(F)(F)F)ccc1Cl [Example 36, 2,5-Dioxopyrrolidin-1-yl 4-(2-((2-chloro-5-(trifluoromethyl)phenyl)amino)-2-oxoethyl)piperazine-1-carboxylate]	< 100	1000 to 10000	< 100	1000 to 10000	
O=C(ON1C(=O)CCC1=O)N1CCN(Cc2cccc(Oc3ccccc3)c2)CC1 [Example 7, 2,5-Dioxopyrrolidin-1-yl 4-[(3-phenoxyphenyl)methyl]piperazine-1-carboxylate]	< 100	1000 to 10000	< 100	< 100	
Cc1c(CN2CCN(C(=O)ON3C(=O)CCC3=O)CC2)cccc1N1CCCCC1 [Example 122, 2,5-Dioxopyrrolidin-1-yl 4-(2-methyl-3-(piperidin-1-yl)benzyl)piperazine-1-carboxylate]					IC50 (FAAH [1]; Table 2, mouse proteome): > 10000 nM; IC50 (MAGL [2]; Table 2, mouse proteome): < 100 nM; inhibition at 5 mg/kg (MAGL [3]): 100%; IC50 (ABHD6 [4]; Table 2, mouse proteome): 100 to 1000 nM
O=C(ON1C(=O)CCC1=O)N1CCN(C(c2ccc(Br)cc2)c2ccc(Br)cc2)CC1 [Example 3, 2,5-Dioxopyrrolidin-1-yl 4-[bis(4-bromophenyl)methyl]piperazine-1-carboxylate]	< 100	> 10000	< 100	100 to 1000	inhibition at 20 mg/kg (MAGL [3]): > 95%
O=C(ON1C(=O)CCC1=O)N1CCC(C(O)(c2ccc3c(c2)OCO3)c2ccc3c(c2)OCO3)CC1 [Example 1, 2,5-Dioxopyrrolidin-1-yl 4-(bis(benzo[d][1,3]dioxol-5 yl)(hydroxy)methyl)piperidine-1-carboxylate]	< 100	> 10000	< 100	100 to 1000	inhibition at 20 mg/kg (MAGL [3]): 75%
O=C(ON1C(=O)CCC1=O)N1CCN(Cc2ccc(N3CCOCC3)cc2C(F)(F)F)CC1 [Example 76, 2,5-Dioxopyrrolidin-1-yl 4-{[4-(morpholin-4-yl)-2-(trifluoromethyl)phenyl]methyl}piperazine-1-carboxylate]					inhibition at 1 µM (ABHD6 [5]): 25 to 75%; inhibition at 1 µM (MAGL [6]): 25 to 75%; inhibition at 1 µM (FAAH [7]): < 25%
O=C(CN1CCCCC1)N1CCN(C(=O)ON2C(=O)CCC2=O)CC1 [Example 213, 2,5-Dioxopyrrolidin-1-yl 4-[2-(piperidin-1-yl)acetyl]piperazine-1-carboxylate]					inhibition at 10 µM (ABHD6 [5]): < 25%; inhibition at 10 µM (MAGL [6]): < 25%; inhibition at 10 µM (FAAH [7]): < 25%
